Columns and labels:
TLR7 = molecular target: T1, TLR7 (Homo sapiens, UniProt Q9NYK1); assay: TLR7 antagonist screening, NF-κB-inducible SEAP reporter in HEK293 cells; assay type: cell-based; details: for Average % Inhibition at TLR7: 10 μM, stimulated with CL097 at 1 μg/ml
T1 construct: expressed in transfected cells; host or cells: HEK293
T1 sequence (Q9NYK1 27-1049): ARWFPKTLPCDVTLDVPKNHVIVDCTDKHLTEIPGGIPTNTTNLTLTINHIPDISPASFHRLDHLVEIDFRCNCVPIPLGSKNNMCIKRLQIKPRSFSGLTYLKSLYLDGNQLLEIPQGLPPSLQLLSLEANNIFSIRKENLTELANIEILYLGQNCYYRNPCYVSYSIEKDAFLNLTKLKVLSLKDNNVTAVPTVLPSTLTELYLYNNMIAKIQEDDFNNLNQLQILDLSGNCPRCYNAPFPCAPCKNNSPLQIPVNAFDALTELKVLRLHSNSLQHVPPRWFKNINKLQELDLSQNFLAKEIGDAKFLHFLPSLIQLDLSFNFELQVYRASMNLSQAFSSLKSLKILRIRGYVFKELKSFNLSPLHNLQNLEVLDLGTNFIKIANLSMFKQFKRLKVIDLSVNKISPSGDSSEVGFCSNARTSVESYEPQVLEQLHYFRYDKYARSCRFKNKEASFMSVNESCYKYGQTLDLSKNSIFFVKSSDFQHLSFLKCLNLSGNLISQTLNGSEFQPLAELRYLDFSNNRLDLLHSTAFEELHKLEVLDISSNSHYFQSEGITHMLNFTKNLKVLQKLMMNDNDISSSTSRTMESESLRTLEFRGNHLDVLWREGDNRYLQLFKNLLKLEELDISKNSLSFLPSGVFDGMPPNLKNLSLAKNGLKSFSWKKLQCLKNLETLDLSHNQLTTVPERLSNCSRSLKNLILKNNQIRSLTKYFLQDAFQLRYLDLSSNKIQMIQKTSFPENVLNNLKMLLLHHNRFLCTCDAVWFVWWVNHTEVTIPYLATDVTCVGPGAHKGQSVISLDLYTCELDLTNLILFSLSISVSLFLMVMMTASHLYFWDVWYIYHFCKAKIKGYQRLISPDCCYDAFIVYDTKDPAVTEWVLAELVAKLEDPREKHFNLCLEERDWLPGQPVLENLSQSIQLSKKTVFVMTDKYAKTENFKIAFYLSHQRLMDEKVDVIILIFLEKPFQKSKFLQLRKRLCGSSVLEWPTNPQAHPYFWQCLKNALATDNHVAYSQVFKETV
Protocol: Stimulation of TLRs 2, 3, 4, 5, 7, 8, and 9 was determined by assessing activation of the transcription factor NF-κB in HEK293 cells that were engineered to express the corresponding receptors. Assessment of TLR stimulation was based on the use of an NF-κB-inducible secreted alkaline phosphatase (SEAP) reporter system in which the SEAP reporter was under the control of a promoter inducible by NF-κB. Thus, the degree of activation of TLRs can be indirectly quantified spectrophotometrically by measuring the amount of the SEAP reporter that is produced.
The appropriate TLR-expressing cells were plated in Growth Medium in a 96-well plate (25,000-50,000 cells/well). The cells were stimulated with the appropriate positive control ligand or no ligand was added (negative control). The positive control ligands were: HKLM was used to stimulate TLR2; poly(I:C) was used to stimulate TLR3; LPS was used to stimulate TLR4; Flagellin was used to stimulate TLR5; CL097 was used to stimulate TLR7; CL075 was used to stimulate TLR8; CpG oligodeoxynucleotide (ODN) 2006 was used to stimulate TLR9. To test whether (+)-morphinans could block that activation of the TLR, the cells were pretreated with an antagonist for 30 minutes prior to addition of the positive control ligand. […] After a 16-20 hr incubation period at 37° C. in a CO2 incubator, 20 μL of the cell culture supernatant was added to 180 μL of QUANTI-Blue™ Media (InvivoGen, San Diego, Calif.), and the resulting solutions were incubated at 37° C. for an additional 1-3 hours according to the manufacturer's instructions. The OD's of the samples were then read at 650 nm on a Beckman Coulter AD 340C Absorbance Detector.

[1] = system: APAP-induced liver toxicity; assay: Acetaminophen (APAP)-induced hepatotoxicity model; assay type: in vivo, mouse; details: APAP 500 mg/Kg ip, 12 hours post-APAP; for Protection from APAP-induced toxicity: test doses and timing per Table 6; for Liver histology scores (necrosis and hemorrhage) / Serum alanine transaminase (ALT) levels: vs APAP alone
Protocol: For this, APAP-induced liver toxicity was induced in male C57BL/6 mice aged between 8-10 weeks by a single intraperitoneal (ip) injection of APAP in PBS at a dose of 500 mg/Kg (Imaeda et al. (2009) J. Clin. Invest. 119(2):305-314). The ability of (+)-morphinans to reduce liver toxicity was tested in the following groups:
The (+)-morphinan (or PBS) was either administered as a single subcutaneous (sc) or ip injection concurrent with the APAP injection or one hour prior to the APAP injection.
The mice were sacrificed 12 hours post-APAP treatment. Liver samples were stained with H&E and analyzed for signs of necrosis and hemorrhage. Histology scores were assigned using the standard rating scale. The levels of serum alanine transaminase (ALT) were also measured in each animal using a standard assay.

SMILES | Average % Inhibition at TLR7 (TLR7) [%] | inhibition at 10 µM (TLR7; HEK293, stimulated with CL097 at 1 μg/ml) [%] | Protection from APAP-induced toxicity [1] | Liver histology scores (necrosis and hemorrhage) [1] | Serum alanine transaminase (ALT) levels [1] | Protection from APAP-induced toxicity ([1]; listed as (+)-naloxone)
COc1ccc2c(c1O)[C@@]13CCN(C)[C@@H](C2)[C@H]1CC(OC)C(=O)C3 (stereo partly shown) [Dihydrosinomenine, dihydrosinomenine] | 11 | – | – | – | – | –
COC1=C[C@@H]2[C@@H]3Cc4ccc(OC)c(O)c4[C@]2(CCN3C)CC1=O [Sinomenine, sinomenine] | – | 20 | – | – | – | –
CN[C@@H]1CC[C@]2(O)[C@@H]3Cc4ccc(O)c5c4[C@]2(CCN3CC2CC2)[C@@H]1O5 [II-78] | – | – | provided protection | reduced to about half | reduced significantly | –
C=CCN1CC[C@]23c4c5ccc(O)c4O[C@H]2C(=O)CC[C@]3(O)[C@H]1C5 [(+)-Naloxone, (+)-naloxone] | 18 | – | essentially no protection | did not improve the histology scores | reduced the ALT levels | did not affect acetaminophen-induced hepatotoxicity

— patent US10363251B2, “(+)-morphinans as antagonists of toll-like receptor 9 and therapeutic uses thereof” (Mallinckrodt LLC, priority 2009, dated 2019)
